Laboratory results: paper PMC6149949, “Synthesis and Evaluation of Thiochroman-4-One Derivatives as Potential Leishmanicidal Agents” (Molecules : A Journal of Synthetic Chemistry and Natural …, 2017)

Assays:
[1] = system: intracellular amastigotes of Leishmania panamensis (MHOM/CO/87/UA140-EGFP strain); assay: In vitro antileishmanial activity on intracellular amastigotes (GFP, flow cytometry); type: cell-based; conditions: for EC50: Leishmania panamensis, U-937, 72 h, intracellular amastigotes of L. panamensis in U-937 cells, 72 h, mean ± SD; for SI (index of selectivity, IS = LC50/EC50): LC50 U-937 / EC50 L. panamensis amastigotes
Experimental: Antileishmanial activity of compounds was determined according to the ability of the compound to reduce the infection by L. panamensis parasites. For this, the antileishmanial activity was tested on intracellular amastigotes of L. panamensis transfected with the green fluorescent protein gene (MHOM/CO/87/UA140-EGFP strain). Briefly, U-937 human cells at a density of 3 × 10^5 cells/mL in RPMI 1640 and 0.1 μg/mL of PMA (phorbol-12-myristate-13-acetate) were dispensed on 24-wells microplate and then infected with stationary phase growing L. panamensis promastigotes in 15:1 parasites per cell ratio. Plates were incubated at 34 °C and 5% CO2 for 3 h and then cells were washed twice with phosphate buffer solution (PBS) to eliminate not internalized parasites. Fresh RPMI-1640 was added into each well (1 mL) and plates were incubated again. After 24 h of infection, the RPMI-1640 medium was replaced by fresh culture medium containing each compound at four serial dilutions (50, 12.5, 3.125 and 0.78 μg/mL) and plates were then incubated at 37 °C and 5% CO2 during 72 h, then, cells were removed from the bottom plate with 100 μL of EDTA/Trypsin (250 mg) solution. The cells were centrifuged at 1100 rpm during 10 min at 4 °C, the supernatant was discarded and cells were washed with 1 mL of cold PBS and centrifuged at 1100 rpm for 10 min at 4 °C. Cells were washed two times employing PBS, as previously, and after the last wash, the supernatant was discarded and cells were suspended in 500 μL of PBS.
Cells were analyzed by flow cytometry employing a flow cytometer (cytomics FC 500MPL, Beckman Coulter. Pasadena, CA, USA) reading at 488 nm (exciting) and 525 nm (emitting) over an argon laser and counting 10,000 events. Infected cells were determined according the events for green fluorescence (parasites). All determinations for each compound and standard drug were carried out by triplicate, in two experiments. Infected cells exposed to control drug (amphotericin B) were used as control for antileishmanial activity (positive control) while infected cells incubated in absence of any compound or drug were used as control for infection (negative control). Nonspecific fluorescence was corrected by subtracting fluorescence of unstained cells. Determinations were done by triplicate in at least two independent experiments.
Antileishmanial activity was determined according reduction of percentage of fluorescent parasites determined according to the median fluorescence intensity (MFI), obtained for each experimental condition by cytometry. The parasite values for each concentration of compound were calculated by Equation (3), where the % of parasites in the control well, corresponds to 100% of parasites. % parasites = (MFI exposed parasites/MFI unexposed parasites) × 100(3)
Then, inhibition percentage was calculated with Equation (4):% inhibition of parasites = 100 − (% parasites)(4)
Results of antileishmanial activities were expressed as the median effective concentrations (EC50) measured by Probit method.

in vitro = conditions: human
Experimental: Cytotoxicity of the compounds was evaluated over human monocytes (U-937 ATCC CRL-1593.2) in exponential growing phase and, adjusted at 1 × 10^5 cells/mL in RPMI-1640 enriched with 10% fetal bovine serum (FBS). One hundred microliters of cell suspension were dispensed in each well of a 96-wells microplate and then, 100 μL of each compound or standard drug (amphotericin B) at four serial dilution concentrations (200, 50, 12.5 and 3.125 μg/mL) were added dissolved in pbs with 0.5% DMSO. Cell exposed to compounds or standard drugs were incubated 72 h at 37 °C and 5% of CO2. Cytotoxic activity of each compound was determined according to the effect on the cell viability by the MTT microenzymatic method in which 3-(4,5-dimethylthiazol-2-yl)- 2,5-diphenyltetrazolium bromide is reduced to a purple product named formazan by mitochondrial enzyme succinate dehydrogenase. Thus, 10 μL/well of MTT solution (5 mg/mL) were added to each well of exposed and unexposed cells, and plates were incubated at 37 °C, 5% CO2 during 3 h. The reaction was stopped by adding 100 μL/well of isopropanol with 50% and 10% of SDS (sodium dodecyl sulfate). The concentration of formazan was determined spectrophotometrically at 570 nm (Varioskan Flash Multimode Reader, Thermo Scientific, Waltham, MA, USA) and intensity of color (absorbance) was registered as O.D. Cells exposed to control drug (amphotericin B) were used as control for toxicity (positive control) while cell incubated in absence of any compound or drug were used as control for viability (negative control). Non-specific absorbance was corrected by subtracting absorbance (O.D) of the blank. Determinations were done by triplicate in at least two independent experiments.
Cytotoxicity was determined according to viability and mortality percentages obtained for each experimental condition (synthetized compounds, amphotericin B and culture medium). Results were expressed as the mean lethal concentrations (LC50), concentration necessary to kill 50% of cells, calculated by the parametric method of linear regression that permits doses-response analysis (Probit analysis).
Initially, viability percentages were calculated by Equation (1), where the O.D of control well, corresponds to 100% of viability. % viability = (O.D exposed cells/O.D unexposed cells) × 100(1)
Then, the percentage of cell growth inhibition was calculated using Equation (2):% inhibition = 100 − (% Viability)(2)
The toxicity was defined according to LC50 values, using the follow scale: Toxic; LC50 < 100 μM; moderately toxic; LC50 > 100 μM and <200 μM and potentially nontoxic; LC50 > 200 μM.

Row | SMILES | EC50 [1] | CC50 at 72 h (in vitro) | SI (index of selectivity, IS = LC50/EC50) [1]
1 | C[C@@H]1[C@H](O)[C@@H](C)/C=C/C=C/C=C/C=C/C=C/C=C/C=C/[C@H](O[C@@H]2O[C@H](C)[C@@H](O)[C@H](N)[C@@H]2O)C[C@@H]2O[C@](O)(C[C@@H](O)C[C@@H](O)[C@H](O)CC[C@@H](O)C[C@@H](O)CC(=O)O[C@H]1C)C[C@H](O)[C@H]2C(=O)O [Amphotericin B, reference compound] | 0.32 µM | 39.6 ± 8.7 µM | 
2 | CC1CC(=O)c2ccccc2S1 (stereo not shown) [Compound 1a, 2-Methylthiochroman-4-one] |  | 604 ± 86.4 µM | 1.36
3 | CC1CC(=O)c2cc(F)ccc2S1 (stereo not shown) [Compound 1b, 6-Fluoro-2-methylthiochroman-4-one] |  | 579 ± 59.1 µM | 1.37
4 | O=C1CCSc2ccc(F)cc21 [Compound 1c, 6-Fluorothiochroman-4-one] | > 110 µM | 705 µM | <6.42
5 | O=C1CCSc2c1ccc1c2C(=O)CCS1 [Compound 1d, 2,3,8,9-Tetrahydro-4H,10H-thiopyran[2,3-f]thiochromene-4,10-dione] | > 80 µM | 279 ± 36.4 µM | <3.49
6 | O=C1CC(C(=O)O)Sc2ccccc21 (stereo not shown) [Compound 1e, 4-Oxothiochroman-2-carboxylic acid] | > 96.1 µM | 143 ± 16.8 µM | <1.48
7 | O=C1CCSc2ccc([N+](=O)[O-])cc21 [Compound 1f, 6-Nitrothiochroman-4-one] | > 95.6 µM | > 200 µM | 
8 | Nc1ccc2c(c1)C(=O)CCS2 [Compound 1g, 6-Aminothiochroman-4-one] | > 112 µM | 118 ± 10.5 µM | <1.100
9 | O=C1CC(c2ccccc2)Sc2ccccc21 (stereo not shown) [Compound 1h, 2-Phenylthiochroman-4-one] | 44.1 ± 0.9 µM | > 41.6 µM | 
10 | O=C1CC(c2ccc(C(F)(F)F)cc2)Sc2ccccc21 (stereo not shown) [Compound 1i, 2-(4-(Trifluoromethyl)-phenyl)-thiochroman-4-one] | 61.4 ± 1.62 µM | > 649 µM | >10.56
11 | O=C1CC(c2ccc(C(F)(F)F)cc2)Sc2ccc(F)cc21 (stereo not shown) [Compound 1j, 6-Fluoro-2-(4-(trifluoromethyl)-phenyl)thiochroman-4-one] | 80.3 ± 12.1 µM | 129 ± 3.45 µM | 1.60
12 | O=C1CC(c2ccc(Cl)cc2)Sc2ccccc21 (stereo not shown) [Compound 1k, 2-(4-Chlorophenyl)-thiochroman-4-one] | > 72.8 µM | 64.4 ± 3.98 µM | <0.90
13 | O=C1CC(c2ccc(F)cc2)Sc2ccccc21 (stereo not shown) [Compound 1l, 2-(4-Fluorophenyl)-thiochroman-4-one] | 93.6 ± 11 µM | 72.9 ± 9.87 µM | 0.78
14 | O=C1CC(c2ccc([N+](=O)[O-])cc2)Sc2ccccc21 (stereo not shown) [Compound 1m, 2-(4-Nitrophenyl)-thiochroman-4-one] | > 70.1 µM | > 701 µM | 
15 | O=c1ccsc2ccc([N+](=O)[O-])cc12 [Compound 2f, 6-Nitro-4H-thiochromen-4-one] | 36.8 ± 1.74 µM | > 965 µM | >26.26
16 | O=c1cc(-c2ccc(C(F)(F)F)cc2)sc2ccccc12 [Compound 2i, 2-(4-(Trifluoromethyl)-phenyl)-4H-thiochromen-4-one] | 161 ± 20.5 µM | 522 ± 314 µM | 3.24
17 | O=c1cc(-c2ccc(C(F)(F)F)cc2)sc2ccc(F)cc12 [Compound 2j, 6-Fluoro-2-(4-(trifluoromethyl)-phenyl)-4H-thiochromen-4-one] | 52.3 ± 8.92 µM | 51.4 ± 11.6 µM | 0.98
18 | O=C1C=C(c2ccc(C(F)(F)F)cc2)S(=O)(=O)c2ccc(F)cc21 [Compound 4j, 6-Fluoro-2-(4-(trifluoromethyl)-phenyl)-4H-thiochromen-4-one 1,1-dioxide] |  | > 561 µM | 
